Results reported in ChEMBL document CHEMBL1135068, “Synthesis and anti-angiogenic activity of 6-(1,2,4-thiadiazol-5-yl)-3-amino pyridazine derivatives” (Bioorg Med Chem Lett, 2002).

Columns and labels:
[1] = species on record: Rattus norvegicus; test: Anti-angiogenic activity as inhibition of microvessel growth in rat aortic ring cultured in a fibrin clot; type: functional; conditions: Aorta
[2] = Compound was evaluated for ocular toxicity assessed after oral dosing at 40 mg/kg b.i.d. in male Wistar rat; No; type: organism-based, Eye; parameters: dose 40 mg/kg, route oral; conditions: in vivo
[3] = Compound was evaluated for ocular toxicity assessed after oral dosing at 40 mg/kg b.i.d. in male Wistar rat; Yes; type: organism-based, Eye; parameters: dose 40 mg/kg, route oral; conditions: in vivo
[4] = system: 3LL cell line; test: In vivo anti-tumor and anti-metastatic activity was measured after oral dosing b.i.d. to B6D2F1 mice bearing metastatic 3LL Lewis lung tumor; type: functional, Mus musculus
[5] = system: 3LL cell line; test: In vivo anti-tumor and anti-metastatic activity was measured after oral dosing 15 mg/kg b.i.d. to B6D2F1 mice bearing metastatic 3LL Lewis lung tumor; type: functional; conditions: Mus musculus
[6] = Compound was evaluated for ocular toxicity assessed after oral dosing at 40 mg/kg b.i.d. in male Wistar rat; Very weak; type: organism-based, Eye; parameters: dose 40 mg/kg, route oral; conditions: in vivo

## Nc1nsc(-c2ccc(N3CCN(c4cccc(C(F)(F)F)c4)CC3)nn2)n1
[1]
  IC50: 20 nM
[2]
  Eye toxicity: No toxicity

## FC(F)(F)c1cccc(N2CCN(c3ccc(-c4ncns4)nn3)CC2)c1
[1]
  IC50: 70 nM
[2]
  Eye toxicity: No toxicity

## Cc1nsc(-c2ccc(N3CCN(c4cc(C(F)(F)F)cc(C(F)(F)F)c4)CC3)nn2)n1
[1]
  IC50: < 0.1 nM
[3]
  Eye toxicity: Yes

## COc1cccc(N2CCN(c3ccc(-c4nc(C)ns4)nn3)CC2)c1
[1]
  IC50: 7 nM

## Cc1nsc(-c2ccc(N3CCN(c4cccc(C(F)(F)F)c4)CC3)nc2)n1
[1]
  IC50: 5 nM
[2]
  Eye toxicity: No toxicity

## Cc1nsc(-c2ccc(N3CCN(c4cc(Cl)cc(Cl)c4)CC3)nn2)n1
[1]
  IC50: < 0.1 nM
[3]
  Eye toxicity: Yes

## Cc1nsc(-c2ccc(N3CCN(c4cccc(C(F)(F)F)c4)CC3)cc2)n1
[1]
  IC50: 10 nM
[2]
  Eye toxicity: No toxicity

## CNc1nsc(-c2ccc(N3CCN(c4cccc(C(F)(F)F)c4)CC3)nn2)n1
[1]
  IC50: 3 nM
[2]
  Eye toxicity: No toxicity

## Cc1nsc(-c2ccc(N3CCN(c4cccc(C#N)c4)CC3)nn2)n1
[1]
  IC50: 3 nM

## Cc1nsc(-c2nccc(N3CCN(c4cccc(C(F)(F)F)c4)CC3)n2)n1
[1]
  IC50: > 100 nM
[2]
  Eye toxicity: No toxicity

## FC(F)(F)c1cc(N2CCN(c3ccc(-c4ncns4)nn3)CC2)cc(C(F)(F)F)c1
[4]
  Inhibition: 24%
[1]
  IC50: < 1 nM
[2]
  Eye toxicity: No toxicity

## Cc1nsc(-c2ccc(N3CCN(c4ccccc4C(F)(F)F)CC3)nn2)n1
[1]
  IC50: 0.2 nM
[3]
  Eye toxicity: Yes

## Cc1nsc(-c2ccc(N3CCN(c4cccc(C(F)(F)F)c4)CC3)nn2)n1
[1]
  IC50: 0.3 nM
[3]
  Eye toxicity: Yes

## CCc1nsc(-c2ccc(N3CCN(c4cccc(C(F)(F)F)c4)CC3)nn2)n1
[1]
  IC50: 8 nM
[2]
  Eye toxicity: No toxicity

## FC(F)(F)c1cccc(N2CCN(C3CCN(c4ccc(-c5ncns5)nn4)CC3)CC2)c1
[5]
  inhibition in vivo at 15 mg/kg: 54%
[1]
  IC50: 0.3 nM
[2]
  Eye toxicity: No toxicity

## Cc1nsc(-c2ccc(N3CCN(c4ccc(C(F)(F)F)cc4)CC3)nn2)n1
[1]
  IC50: 12 nM

## Cc1nsc(-c2ccc(N3CCN(c4cccc([N+](=O)[O-])c4)CC3)nn2)n1
[1]
  IC50: 3 nM
[3]
  Eye toxicity: Yes

## Cc1nsc(-c2ccc(N3CCN(c4cccc(N)c4)CC3)nn2)n1
[1]
  IC50: > 100 nM

## Cc1nsc(-c2ccnc(N3CCN(c4cccc(C(F)(F)F)c4)CC3)n2)n1
[1]
  IC50: > 100 nM

## CN(C)c1nsc(-c2ccc(N3CCN(c4ccccc4)CC3)nn2)n1
[5]
  inhibition in vivo at 15 mg/kg: 13%
[1]
  IC50: 0.1 nM
[2]
  Eye toxicity: No toxicity

## CN(C)c1nsc(-c2ccc(N3CCC(N4CCN(c5cccc(C(F)(F)F)c5)CC4)CC3)nn2)n1
[5]
  inhibition in vivo at 15 mg/kg: 25%
[1]
  IC50: < 1 nM
[6]
  Eye toxicity: Very weak

## FC(F)(F)c1cccc(NC2CCN(c3ccc(-c4ncns4)nn3)CC2)c1
[5]
  inhibition in vivo at 15 mg/kg: 42%
[1]
  IC50: 7 nM
[2]
  Eye toxicity: No toxicity

## Cc1nsc(-c2ccc(N3CCN(c4cccc(Cl)c4)CC3)nn2)n1
[1]
  IC50: 0.6 nM
[3]
  Eye toxicity: Yes

## CN(C)c1nsc(-c2ccc(N3CCN(c4cccc(C(F)(F)F)c4)CC3)nn2)n1
[5]
  inhibition in vivo at 15 mg/kg: 39%
[2]
  Eye toxicity: No toxicity

## Cc1nsc(-c2ccc(N3CCN(c4cccc(F)c4)CC3)nn2)n1
[1]
  IC50: 6 nM
